Measured values reported in US20040147434A1, “Use of enzyme inhibitors of the dipeptidypeptidase iv (ec3.3.14.5) in addition to the aminopeptidase n (ec 3.4.11.2), individually or in a combination thereof, and pharmaceutical preparations thereof for the prevention and/or therapy of ischaemia-caused acute and chronic neurodegenerative process …” (priority 2001, published 2004).

Assays:
[1] = test system: peripheric mononuclear cells (MNC) or T lymphocytes; settings: simultaneous and separate administration of inhibitors of DP IV and APN; cited from earlier work
[2] = test system: hippocampal neurons; test: Neuroprotection in organotypical hippocampus slices after 40 min oxygen and glucose deprivation (propidium iodide fluorescence); format: cell-based, rat; settings: exclusively actinonine (10 μm), 24 h before, during and 24 h after ischemia; n=5 experiments
Procedure: FIG. 2: Protective effect of inhibitors of DP IV (I63) and APN (actinonine) on the survival of hippocampal neurons after a transient deprivation of oxygen and glucose: There are shown in the FIG. transmission photographs (respective left sides) and fluorescence photographs (respective right sides) of hippocampus slices 24 h after an experimental ischemia. The intensity of the red fluorescence corresponds to the neuronal cell damage (B, D). The slices shown in FIGS. 2A and 2B were subjected to a 40 min deprivation of oxygen and glucose in the absence of DP IV or APN inhibitors. […] The protective effect occurring at a simultaneous application of I63 and actinonine is significant (P=0,0000; calculated by means of a two side heteroscedastic t test) and is about 62%.
Organotypical hippocampus slices were prepared and cultivated according to Striggow F et al. (Striggow, F, Riek M, Breder J, Henrich-Noak P, Reymann K G, Reiser G (2000). The protease thrombin is an endogenous mediator of hippocampal neuroprotection against ischemia at low concentrations but causes degeneration at high concentrations. Proc. Natl. Acad. Sci. (USA) 97: 2264-2269). […] Only after said time, there occurrs a characteristic red fluorescence, the intensity of which is proportional to the neuronal cell damage. […]

SMILES	DNA synthesis and proliferation of human immune cells [1]	protective effect on the survival of hippocampal neurons after transient ischemia [2]
N[C@@H](CCCCNC(=O)OCc1ccc([N+](=O)[O-])cc1)C(=O)N1CCSC1 [I49, Lys[Z(NO2)] thiazolidide]	inhibited	
CCCCC[C@H](CC(=O)NO)C(=O)N[C@H](C(=O)N1CCC[C@H]1CO)C(C)C [actinonine]	inhibited	about 34%
